According to the NIST ThermoML archive (doi:10.1016/j.jct.2014.07.004):
± gives the expanded uncertainty stated by the source.

Conditions: Liquid, Closed cell (Static) method

SMILES	vapor or sublimation pressure (327.12 K) [kPa]	vapor or sublimation pressure (338.15 K) [kPa]	vapor or sublimation pressure (343.15 K) [kPa]	vapor or sublimation pressure (348.15 K) [kPa]	vapor or sublimation pressure (353.15 K) [kPa]	vapor or sublimation pressure (277.96 K) [kPa]	vapor or sublimation pressure (282.06 K) [kPa]	vapor or sublimation pressure (288.15 K) [kPa]	vapor or sublimation pressure (293.15 K) [kPa]	vapor or sublimation pressure (298.15 K) [kPa]	vapor or sublimation pressure (303.15 K) [kPa]	vapor or sublimation pressure (310.74 K) [kPa]	vapor or sublimation pressure (314.83 K) [kPa]	vapor or sublimation pressure (323.15 K) [kPa]	vapor or sublimation pressure (328.15 K) [kPa]	vapor or sublimation pressure (333.15 K) [kPa]	vapor or sublimation pressure (286.15 K) [kPa]	vapor or sublimation pressure (290.25 K) [kPa]	vapor or sublimation pressure (294.35 K) [kPa]	vapor or sublimation pressure (306.64 K) [kPa]	other results
CC1COC(=O)O1 (stereo not given) [4-methyl-1,3-dioxolan-2-one]	0.057	0.123 ± 0.13	0.185 ± 0.13	0.221 ± 0.13	0.287 ± 0.13	–	–	–	–	–	–	–	–	–	–	–	–	–	–	–	vapor or sublimation pressure (331.22 K): 0.078 ± 0.13 kPa
CCOC(=O)OC [ethyl methyl carbonate]	–	–	–	–	–	0.958 ± 0.13	1.285 ± 0.13	2.008 ± 0.2	2.439 ± 0.25	3.658 ± 0.37	4.534 ± 0.46	6.739 ± 0.68	7.885 ± 0.79	12.28 ± 1.2	15.26 ± 1.5	18.28 ± 1.8	–	–	–	–	vapor or sublimation pressure (283.15 K): 1.516 ± 0.16 kPa; vapor or sublimation pressure (308.15 K): 5.801 ± 0.58 kPa
O=C1OCCO1 [ethylene carbonate]	–	0.066 ± 0.13	0.087 ± 0.13	0.124 ± 0.13	0.175 ± 0.13	–	–	–	–	–	–	–	–	–	–	0.045	–	–	–	–	–
O [water]	15.18 ± 1.5	–	–	–	–	0.961 ± 0.13	1.243 ± 0.13	–	–	–	–	7.056 ± 0.71	8.582 ± 0.86	–	–	–	1.442 ± 0.15	1.947 ± 0.2	2.537 ± 0.26	5.035 ± 0.51	vapor or sublimation pressure (298.44 K): 3.288 ± 0.33 kPa; vapor or sublimation pressure (302.54 K): 4.068 ± 0.41 kPa; vapor or sublimation pressure (318.93 K): 9.702 ± 0.97 kPa; vapor or sublimation pressure (323.03 K): 11.46 ± 1.2 kPa
COC(=O)OC [dimethyl carbonate]	–	–	–	–	–	2.298 ± 0.23	3.121 ± 0.32	–	–	6.982 ± 0.7	–	14.02 ± 1.4	–	23.07 ± 2.3	–	–	4.019 ± 0.4	4.863 ± 0.49	6.311 ± 0.63	11.7 ± 1.2	vapor or sublimation pressure (302.54 K): 9.72 ± 0.98 kPa; vapor or sublimation pressure (318.15 K): 19.82 ± 2 kPa
CCOC(=O)OCC [diethyl carbonate]	–	11.56 ± 1.2	13.78 ± 1.4	16.09 ± 1.6	20.83 ± 2.1	0.401 ± 0.13	0.515 ± 0.13	0.797 ± 0.13	1.031 ± 0.13	1.414 ± 0.14	1.844 ± 0.19	3.012 ± 0.3	–	6.172 ± 0.62	7.162 ± 0.72	9.088 ± 0.91	0.666 ± 0.13	–	–	2.347 ± 0.24	vapor or sublimation pressure (318.15 K): 4.582 ± 0.46 kPa
